Like-named read-outs stand apart in the source and are kept apart here.
Tests used:
[1] = Solubility in RO water at room temperature; assay type: physicochemical; conditions: % = grams soluble in 100 grams of solvent
Method: Hereinafter, unless specified otherwise, the solubility of material is determined in RO (reverse osmosis) water at room temperature.

[2] = Solubility comparison of spray dried amorphous powder samples; assay type: physicochemical; conditions: room temperature
Method: Hereinafter, unless specified otherwise, the solubility of material is determined in RO (reverse osmosis) water at room temperature. Where the solubility is expressed as “%” it to be understood as number of grams of material soluble in 100 grams of solvent.

[3] = background description of Rebaudioside A forms, % = grams soluble in 100 grams of solvent, cited from earlier work
[4] = cited from earlier work

Question: For `C=C1C[C@@]23CC[C@H]4[C@@](C)(CCC[C@@]4(C)C(=O)O[C@@H]4O[C@H](CO)[C@@H](O)[C@H](O)[C@H]4O)[C@@H]2CC[C@]1(O[C@@H]1O[C@H](CO)[C@@H](O)[C@H](O[C@@H]2O[C@H](CO)[C@@H](O)[C@H](O)[C@H]2O)[C@H]1O[C@@H]1O[C@H](CO)[C@@H](O)[C@H](O)[C@H]1O)C3` [rebaudioside A], which solubility in water [1] is on record?
Answer: 0.6%

Question: For `C=C1C[C@@]23CC[C@H]4[C@@](C)(CCC[C@@]4(C)C(=O)O[C@@H]4O[C@H](CO)[C@@H](O)[C@H](O)[C@H]4O)[C@@H]2CC[C@]1(O[C@@H]1O[C@H](CO)[C@@H](O)[C@H](O[C@@H]2O[C@H](CO)[C@@H](O)[C@H](O)[C@H]2O)[C@H]1O[C@@H]1O[C@H](CO)[C@@H](O)[C@H](O)[C@H]1O)C3` [Sample #3, Rebaudioside A], which “Observation (solubility)” value ([2]; at 5% in water) is on record?
Answer: Clear solution

Question: What about the “Observation (solubility)” value ([2]; at 10% in water) of the same compound?
Answer: Clear solution

Question: What about the “Observation (solubility)” value ([2]; at 20% in water) of the same compound?
Answer: Clear solution

Question: And the “Observation (solubility)” value ([2]; at 30% in water)?
Answer: Clear solution

Question: And the “Observation (solubility)” value ([2]; at 40% in water)?
Answer: Slightly cloudy

Question: With `C=C1C[C@@]23CC[C@H]4[C@@](C)(CCC[C@@]4(C)C(=O)O[C@@H]4O[C@H](CO)[C@@H](O)[C@H](O)[C@H]4O)[C@@H]2CC[C@]1(O[C@@H]1O[C@H](CO)[C@@H](O)[C@H](O[C@@H]2O[C@H](CO)[C@@H](O)[C@H](O)[C@H]2O)[C@H]1O[C@@H]1O[C@H](CO)[C@@H](O)[C@H](O)[C@H]1O)C3` [Crystalline Rebaudioside A, Rebaudioside A] as the compound, how does the solubility [3] read?
Answer: 1%-2%

Question: For `C=C1C[C@@]23CC[C@H]4[C@@](C)(CCC[C@@]4(C)C(=O)O[C@@H]4O[C@H](CO)[C@@H](O)[C@H](O)[C@H]4O)[C@@H]2CC[C@]1(O[C@@H]1O[C@H](CO)[C@@H](O)[C@H](O[C@@H]2O[C@H](CO)[C@@H](O)[C@H](O)[C@H]2O)[C@H]1O[C@@H]1O[C@H](CO)[C@@H](O)[C@H](O)[C@H]1O)C3` [Form 2, Rebaudioside A], which solubility ([3]; listed as anhydrous form) is on record?
Answer: up to 30%

Question: And the “Rate of dissolution in H2O at 25° C.” value ([4]; grade in words)?
Answer: Intermediate

Question: For `C=C1C[C@@]23CC[C@H]4[C@@](C)(CCC[C@@]4(C)C(=O)O[C@@H]4O[C@H](CO)[C@@H](O)[C@H](O)[C@H]4O)[C@@H]2CC[C@]1(O[C@@H]1O[C@H](CO)[C@@H](O)[C@H](O[C@@H]2O[C@H](CO)[C@@H](O)[C@H](O)[C@H]2O)[C@H]1O[C@@H]1O[C@H](CO)[C@@H](O)[C@H](O)[C@H]1O)C3` [Form 4, Rebaudioside A], which “Rate of dissolution in H2O at 25° C.” value ([4]; grade in words) is on record?
Answer: High

Question: What about the “Rate of dissolution in H2O at 25° C.” value ([4]; in 5 minutes) of the same compound?
Answer: > 35%

Question: What does the source list for `C=C1C[C@@]23CC[C@H]4[C@@](C)(CCC[C@@]4(C)C(=O)O[C@@H]4O[C@H](CO)[C@@H](O)[C@H](O)[C@H]4O)[C@@H]2CC[C@]1(O[C@@H]1O[C@H](CO)[C@@H](O)[C@H](O[C@@H]2O[C@H](CO)[C@@H](O)[C@H](O)[C@H]2O)[C@H]1O[C@@H]1O[C@H](CO)[C@@H](O)[C@H](O)[C@H]1O)C3` [Form 3, Rebaudioside A]?
Answer: Rate of dissolution in H2O at 25° C. ([4]; grade in words): High; Rate of dissolution in H2O at 25° C. ([4]; in 5 minutes): > 30%

Question: With `C=C1C[C@@]23CC[C@H]4[C@@](C)(CCC[C@@]4(C)C(=O)O[C@@H]4O[C@H](CO)[C@@H](O)[C@H](O)[C@H]4O)[C@@H]2CC[C@]1(O[C@@H]1O[C@H](CO)[C@@H](O)[C@H](O[C@@H]2O[C@H](CO)[C@@H](O)[C@H](O)[C@H]2O)[C@H]1O[C@@H]1O[C@H](CO)[C@@H](O)[C@H](O)[C@H]1O)C3` [Sample #1, Rebaudioside A] as the compound, how does the “Observation (solubility)” value ([2]; at 5% in water) read?
Answer: Clear solution

Question: What about the “Observation (solubility)” value ([2]; at 10% in water) of the same compound?
Answer: Slightly cloudy

Question: What about the “Observation (solubility)” value ([2]; at 20% in water) of the same compound?
Answer: Cloudy solution

Question: What about the “Observation (solubility)” value ([2]; at 30% in water) of the same compound?
Answer: Undissolved matter

Question: Which solubility in water [1] does the source give for `C=C1C[C@@]23CC[C@H]4[C@@](C)(CCC[C@@]4(C)C(=O)O[C@@H]4O[C@H](CO)[C@@H](O)[C@H](O)[C@H]4O)[C@@H]2CC[C@]1(O[C@@H]1O[C@H](CO)[C@@H](O)[C@H](O[C@@H]2O[C@H](CO)[C@@H](O)[C@H](O)[C@H]2O)[C@H]1O[C@@H]1O[C@H](CO)[C@@H](O)[C@H](O)[C@H]1O)C3` [highly soluble amorphous form of rebaudioside A] here?
Answer: greater than 30%

Question: Which “Observation (solubility)” value ([2]; at 5% in water) does the source give for `C=C1C[C@@]23CC[C@H]4[C@@](C)(CCC[C@@]4(C)C(=O)O[C@@H]4O[C@H](CO)[C@@H](O)[C@H](O)[C@H]4O)[C@@H]2CC[C@]1(O[C@@H]1O[C@H](CO)[C@@H](O)[C@H](O[C@@H]2O[C@H](CO)[C@@H](O)[C@H](O)[C@H]2O)[C@H]1O[C@@H]1O[C@H](CO)[C@@H](O)[C@H](O)[C@H]1O)C3` [Sample #2, Rebaudioside A] here?
Answer: Clear solution

Question: What about the “Observation (solubility)” value ([2]; at 10% in water) of the same compound?
Answer: Clear solution

Question: And the “Observation (solubility)” value ([2]; at 20% in water)?
Answer: Slightly cloudy

Question: And the “Observation (solubility)” value ([2]; at 30% in water)?
Answer: Cloudy solution

Question: With `C=C1C[C@@]23CC[C@H]4[C@@](C)(CCC[C@@]4(C)C(=O)O[C@@H]4O[C@H](CO)[C@@H](O)[C@H](O)[C@H]4O)[C@@H]2CC[C@]1(O[C@@H]1O[C@H](CO)[C@@H](O)[C@H](O[C@@H]2O[C@H](CO)[C@@H](O)[C@H](O)[C@H]2O)[C@H]1O[C@@H]1O[C@H](CO)[C@@H](O)[C@H](O)[C@H]1O)C3` [Form 1, Rebaudioside A] as the compound, how does the solubility ([3]; listed as hydrate form) read?
Answer: less than 0.2%

Question: And the “Rate of dissolution in H2O at 25° C.” value ([4]; grade in words)?
Answer: Very low

Question: And the “Rate of dissolution in H2O at 25° C.” value ([4]; in 60 minutes)?
Answer: (<0.2% in 60

From patent US11856974B2, “Highly soluble stevia sweetener” (PureCircle Sdn Bhd, priority 2011, dated 2024)
